The results in this text go back to US8853424B2 (Japan Science and Technology Agency, priority 2008, dated 2014).

For one test, the system named is transglutaminase (TGase). Briefly: Measurement of TG (TGase inhibitory activity, monodansyl cadaverine / N,N-dimethylcasein fluorescence, FDSS 3000). The format is biochemical. How it is done: For example, the method described in the Example can be performed.
The compound of the present invention (10 mM, 1 μL) was taken in a 96-well plate (Nunc, 96 Well Black Plate with Clear Bottom), an enzyme reaction solution (100 mM HEPES-NaOH, pH 7.5, 1 mM CaCl2, 20 μM monodansyl cadaverine, 0.05 mg/mL N,N-dimethylcasein, 5 μg/mL TGase) (0.1 ml) was added and the mixture was sufficiently mixed without making foams. The mixture was set on a fluorescence drug screening system FDSS 3000 (Hamamatsu Photonics K.K.), and changes in the fluorescence wavelength per unit time at 340 nm were measured, based on which the TGase inhibitory activity of the compound of the present invention was calculated. As a control, change in the fluorescence when 1 μL of DMSO (dimethyl sulfoxide) was added instead of the compound of the present invention was taken as 100, and TG50 was when the activity decreased to half due to the compound of the present invention.

Test [1] relates to Truncated N-terminal huntington 150 Q-EGFP-Neuron 2a cells. Briefly: Measurement of x-Fold (polyglutamine aggregation inhibitory activity). The format is cell-based. How it is done: In the present invention, the polyglutamine aggregation inhibitory activity (x-Fold) can be measured, for example, by the method described in the Example.
The number of the aggregated cells, and the total number of cells were counted by Array Scan V T1 (manufactured by Cellomics, Pittuburg, USA), and the ratio of the aggregated cells to the total number of cells was determined (x-Fold). […]

Setting [2] is: TGase activity with compound (10 mM, 1 μL in 0.1 ml enzyme reaction solution), DMSO control taken as 100.
Where [3] appears, read: TGase inhibitory activity value, Table 1.
[4] abbreviates: polyglutamine aggregation inhibitory activity, Table 1.
The mark [5] stands for this setting: ratio of aggregated cells to total number of cells, compound 20 μM, 20 hr, almost 1 without compound, smaller = stronger inhibition.
Where [6] appears, read: TGase inhibitory activity measurement, unit not given.
Where [7] appears, read: polyglutamine aggregation, Truncated N-terminal huntington 150 Q-EGFP-Neuron 2a cells.

With `NCCOB(c1ccccc1)c1cccc(-c2cccc(B(OCCN)c3ccccc3)n2)n1` [Example 382, 6,6′-(phenylaminoethoxyboryl)-2,2′-dipyridyl], the “TGase activity remaining (% of DMSO control = 100)” value with transglutaminase (TGase) (setting [2]) and in the test with transglutaminase (TGase) (setting [3]) was 76 each time. The x-Fold in test [1] (setting [4]) and in test [1] (setting [5]) was 0.80 each time.
On to `NCCOB(c1cc(F)cc(F)c1)c1cc(F)cc(F)c1` [Example 91, aminoethyl bis(3,5-difluorophenyl)borinate], for which the “TGase activity remaining (% of DMSO control = 100)” value in the test with transglutaminase (TGase) (setting [2]) and with transglutaminase (TGase) (setting [3]) was 107 throughout. Also, the x-Fold in test [1] (setting [4]) and in test [1] (setting [5]) was 0.99 each time.
On to `CCCCB(O)c1ccccc1` [Example 108, normal-butyl phenyl borinic acid], for which the “TGase activity remaining (% of DMSO control = 100)” value with transglutaminase (TGase) (setting [2]) and with transglutaminase (TGase) (setting [3]) was 111 in each case. In addition, the x-Fold in test [1] (setting [4]) and in test [1] (setting [5]) was 1.00 throughout.
With `OB(c1ccc(Oc2ccc(B(O)c3cccc4ccccc34)cc2)cc1)c1cccc2ccccc12` [Example 439, bis(4,4′-(naphthylhydroxyboryl)phenyl)ether], the “TGase activity remaining (% of DMSO control = 100)” value in the test on transglutaminase (TGase) (setting [2]) and with transglutaminase (TGase) (setting [6]) was 33 each time. Also, the x-Fold in test [1] (setting [7]) and in test [1] (setting [5]) was 0.54 throughout.
For the compound `Cc1ccc(B(OCCN2CCCCC2)c2ccc(Oc3ccc(B(OCCN4CCCCC4)c4ccc(C)cc4)cc3)cc2)cc1` [Example 447, bis(4,4′-(tolylpiperadylethoxyboryl)phenyl)ether], the “TGase activity remaining (% of DMSO control = 100)” value with transglutaminase (TGase) (setting [2]) and in the test on transglutaminase (TGase) (setting [6]) was 97 throughout. The x-Fold in test [1] (setting [7]) and in test [1] (setting [5]) was 0.49 in each case.
Consider `Cc1ccc(B(O)c2ccc(Oc3ccc(B(O)c4ccc(C)cc4)cc3)cc2)cc1` [Example 440, bis(4,4′-(tolylhydroxyboryl)phenyl)ether], for which the “TGase activity remaining (% of DMSO control = 100)” value in the test with transglutaminase (TGase) (setting [2]) and in the test on transglutaminase (TGase) (setting [6]) was 63 throughout. In addition, the x-Fold in test [1] (setting [7]) and in test [1] (setting [5]) was 0.69 each time.
As to `NC(=O)CC(N)C(=O)OB(c1ccccc1)c1ccc(Oc2ccc(B(OC(=O)C(N)CC(N)=O)c3ccccc3)cc2)cc1` (stereo not shown) [Example 390, bis(4,4′-(phenyl-asparagineboryl)phenyl)ether], the “TGase activity remaining (% of DMSO control = 100)” value in the test on transglutaminase (TGase) (setting [2]) stood at 56. Besides, in test [1] (setting [5]), the x-Fold came out at 0.59.
Consider `Cc1cc(B(O)c2ccccc2)ccc1B(O)c1ccccc1` [Example 358, 2,5-di(phenylhydroxyboryl)toluene], for which the “TGase activity remaining (% of DMSO control = 100)” value in the test on transglutaminase (TGase) (setting [2]) and with transglutaminase (TGase) (setting [3]) was 112 each time. In addition, the x-Fold in test [1] (setting [4]) and in test [1] (setting [5]) was 0.91 throughout.
In the case of `COc1ccc(F)cc1B(O)c1ccc(COCc2ccc(B(O)c3cc(F)ccc3OC)cc2)cc1` [Example 349, bis(4-(2-methoxy-5-fluorophenylhydroxyboryl)benzyl)ether], the “TGase activity remaining (% of DMSO control = 100)” value in the test with transglutaminase (TGase) (setting [2]) and in the test on transglutaminase (TGase) (setting [3]) was 104 throughout. Moreover, the x-Fold in test [1] (setting [4]) and in test [1] (setting [5]) was 0.80 each time.
In the case of `OB(c1ccc(F)c(F)c1)c1ccc(F)c(F)c1` [Example 80, bis(3,4-difluorophenyl)borinic acid], the “TGase activity remaining (% of DMSO control = 100)” value with transglutaminase (TGase) (setting [2]) and with transglutaminase (TGase) (setting [3]) was 93 throughout. Besides, the x-Fold in test [1] (setting [4]) and in test [1] (setting [5]) was 0.90 in each case.
For the compound `c1ccc(CNCCOB(c2ccccc2)c2cccc(COCc3cccc(B(OCCNCc4ccccc4)c4ccccc4)c3)c2)cc1` [Example 199, bis(3,3′-(phenylbenzylaminoethoxyboryl)benzyl)ether], the “TGase activity remaining (% of DMSO control = 100)” value in the test with transglutaminase (TGase) (setting [2]) and with transglutaminase (TGase) (setting [3]) was 3 throughout. For the same compound, the x-Fold in test [1] (setting [4]) and in test [1] (setting [5]) was 0.90 each time.
Consider `N#Cc1ccc(B(SCCN)c2ccc(C#N)cc2)cc1` [Example 106, 2-aminoethylthio bis(4-cyanophenyl)borane], for which the “TGase activity remaining (% of DMSO control = 100)” value in the test with transglutaminase (TGase) (setting [2]) and in the test with transglutaminase (TGase) (setting [3]) was 23 throughout. For the same compound, the x-Fold in test [1] (setting [4]) and in test [1] (setting [5]) was 0.92 each time.
Take `CC(C)CC(N)C(=O)OB(c1ccccc1)c1ccccc1` (stereo not shown) [Example 261, diphenyl(leucinate-O,N)borane]: the “TGase activity remaining (% of DMSO control = 100)” value in the test with transglutaminase (TGase) (setting [2]) and in the test with transglutaminase (TGase) (setting [3]) was 109 throughout. In addition, the x-Fold in test [1] (setting [4]) and in test [1] (setting [5]) was 0.89 in each case.
Regarding `OB(O)c1ccc(F)c(Cl)c1` [Example 145, (3-chloro-4-fluorophenyl)boronic acid], the “TGase activity remaining (% of DMSO control = 100)” value with transglutaminase (TGase) (setting [2]) and with transglutaminase (TGase) (setting [3]) was 97 in each case. The x-Fold in test [1] (setting [4]) and in test [1] (setting [5]) was 0.91 throughout.
For the compound `CN(C)CCOB(c1ccc(Cl)c(F)c1)c1ccc(Cl)c(F)c1` [Example 94, dimethylaminoethyl bis(4-chloro-3-fluorophenyl)borinate], the “TGase activity remaining (% of DMSO control = 100)” value with transglutaminase (TGase) (setting [2]) and in the test on transglutaminase (TGase) (setting [3]) was 114 in each case. Moreover, the x-Fold in test [1] (setting [4]) and in test [1] (setting [5]) was 0.95 in each case.
For `Cc1ccc(B(O)c2ccc(Oc3ccc(B(O)c4ccc(C)cc4)cc3)cc2)cc1` [Example 365, 4,4′-(4-methylphenylhydroxyboryl)diphenylether], the “TGase activity remaining (% of DMSO control = 100)” value in the test with transglutaminase (TGase) (setting [2]) and with transglutaminase (TGase) (setting [3]) was 118 each time. Besides, the x-Fold in test [1] (setting [4]) and in test [1] (setting [5]) was 0.91 throughout.
Turning to `OB(c1ccccc1)c1ccccc1CCOCc1ccccc1B(O)c1ccccc1` [Example 368, (2-(phenylhydroxyboryl)phenethyl)((2-phenylhydroxyboryl)benzyl)ether], the “TGase activity remaining (% of DMSO control = 100)” value in the test on transglutaminase (TGase) (setting [2]) and in the test on transglutaminase (TGase) (setting [3]) was 52 in each case. Also, the x-Fold in test [1] (setting [4]) and in test [1] (setting [5]) was 1.03 throughout.
For the compound `CN(C)CCOB(c1ccccc1)c1ccc(Oc2ccc(B(OCCN(C)C)c3ccccc3)cc2)cc1` [Example 385, bis(4,4′-(phenyl-N,N-dimethylaminoethoxyboryl)phenyl)ether], the “TGase activity remaining (% of DMSO control = 100)” value in the test with transglutaminase (TGase) (setting [2]) came to 116. In addition, the x-Fold was 1.07 in test [1] (setting [4]) and 0.78 in test [1] (setting [5]).
On to `CN(C)CCOB(c1ccccc1)c1ccc(Oc2ccc(B(OCCN(C)C)c3ccccc3)cc2)cc1` [Example 395, bis(4,4′-(phenyl-N,N-dimethylaminoethoxyboryl)phenyl)ether], for which, in the test with transglutaminase (TGase) (setting [2]), the “TGase activity remaining (% of DMSO control = 100)” value is on record as 116. Also, in test [1] (setting [5]), the x-Fold came out at 0.86.
As to `OB(c1ccccc1)c1cccc(-c2cccc(B(O)c3ccccc3)n2)n1` [Example 381, 6,6′-(phenylhydroxyboryl)-2,2′-dipyridyl], the “TGase activity remaining (% of DMSO control = 100)” value with transglutaminase (TGase) (setting [2]) and with transglutaminase (TGase) (setting [3]) was 55 in each case. Also, the x-Fold in test [1] (setting [4]) and in test [1] (setting [5]) was 0.80 in each case.
Regarding `Cc1cc(B(O)c2ccc(COCc3ccc(B(O)c4ccc(Cl)c(C)c4)cc3)cc2)ccc1Cl` [Example 338, bis(4-(4-chloro-3-methyl-phenyl)hydroxyborylbenzyl)ether], the “TGase activity remaining (% of DMSO control = 100)” value in the test on transglutaminase (TGase) (setting [2]) is 110; with transglutaminase (TGase) (TGase inhibitory activity value, Table 1, listed as 693) it was 110. In addition, the x-Fold in test [1] (polyglutamine aggregation inhibitory activity, Table 1, listed as 693) is listed as 0.83; in test [1] (setting [5]) it was 0.83.
With `Cc1ccc(B(OCCC2CCCCN2)c2ccc(C)c(Cl)c2)cc1Cl` (stereo not shown) [Example 248], the “TGase activity remaining (% of DMSO control = 100)” value in the test on transglutaminase (TGase) (setting [2]) came out at 103. In addition, the x-Fold in test [1] (setting [5]) was 0.87.
For `NC(c1ccccc1)C(OB(c1ccccc1)c1ccccc1)c1ccccc1` (stereo not shown) [Example 224, diphenyl 1-(2-aminobenzyl) 1-phenylmethylborinate], the “TGase activity remaining (% of DMSO control = 100)” value in the test on transglutaminase (TGase) (setting [2]) and in the test with transglutaminase (TGase) (setting [3]) was 112 in each case. For the same compound, the x-Fold in test [1] (setting [4]) and in test [1] (setting [5]) was 0.89 each time.
In the case of `Cc1ccc(B(OC(=O)c2ccccc2N)c2ccc(C)c(Cl)c2)cc1Cl` [Example 180, di(3-chloro-4-methylphenyl)(anthranate-O,N)borane], the “TGase activity remaining (% of DMSO control = 100)” value in the test with transglutaminase (TGase) (setting [2]) and with transglutaminase (TGase) (setting [3]) was 35 in each case. Moreover, the x-Fold in test [1] (setting [4]) and in test [1] (setting [5]) was 0.98 throughout.
In the case of “FITC aminoethylaminoethyl diphenylborinate [Example 161]”, the “TGase activity remaining (% of DMSO control = 100)” value with transglutaminase (TGase) (setting [2]) and in the test on transglutaminase (TGase) (setting [3]) was 6 each time. Besides, the x-Fold in test [1] (setting [4]) and in test [1] (setting [5]) was 0.99 throughout.
For “4,4′-(phenyl piperazino-O,O-ethoxyboryl)benzylether [Example 197]”, the “TGase activity remaining (% of DMSO control = 100)” value in the test with transglutaminase (TGase) (setting [2]) and in the test on transglutaminase (TGase) (setting [3]) was 99 each time. The x-Fold in test [1] (setting [4]) and in test [1] (setting [5]) was 1.02 each time.
